Assay results reported in patent US10336774B2, “N-azaspirocycloalkane substituted N-heteroaryl compounds and compositions for inhibiting the activity of SHP2” (NOVARTIS AG, priority 2014, dated 2019).

What follows are molecules tested against SHP2 (Homo sapiens (Human), UniProt Q06124) (assay: SHP2 Allosteric Inhibition Assay). Conditions: 0.5 nM SHP2 activated with 0.5 μM peptide IRS1_pY1172(dPEG8)pY1222, surrogate substrate DiFMUP, fluorescence.
Type: biochemical
Description: SHP2 Allosteric Inhibition Assay SHP2 is allosterically activated through binding of bis-tyrosyl-phorphorylated peptides to its Src Homology 2 (SH2) domains. The latter activation step leads to the release of the auto-inhibitory interface of SHP2, which in turn renders the SHP2 protein tyrosine phosphatase (PTP) active and available for substrate recognition and reaction catalysis. The catalytic activity of SHP2 was monitored using the surrogate substrate DiFMUP in a prompt fluorescence assay format. […] After 30-60 minutes incubation at 25° C., the surrogate substrate DiFMUP (Invitrogen, cat# D6567) was added to the reaction and incubated at 25° C. for 30 minutes. […] The inhibitor dose response curves were analyzed using normalized IC50 regression curve fitting with control based normalization.

Row | IC50 [nM] | SMILES
1 | 3 | Nc1nc(N2CCC3(CC2)C[C@H](O)C[C@H]3N)cnc1Sc1ccnc(Cl)c1Cl [Example 57]
2 | 4 | Nc1nc(N2CCC3(CC2)C[C@@H](O)C[C@H]3N)cnc1Sc1ccnc(Cl)c1Cl [Example 58]
3 | 10 | CO[C@H]1C[C@@H](N)C2(CCN(c3cnc(Sc4ccnc(N)c4Cl)c(N)n3)CC2)C1 [Example 59]
4 | 4 | CO[C@H]1C[C@@H](N)C2(CCN(c3cnc(Sc4ccnc(Cl)c4Cl)c(N)n3)CC2)C1 [Example 60]
5 | 7 | C[C@@H]1C[C@@H](N)C2(CCN(c3cnc(Sc4cccnc4C(F)(F)F)c(N)n3)CC2)C1 [Example 61]
6 | 100 | C[C@@H]1C[C@H](N)C2(CCN(c3cnc(Sc4cccnc4C(F)(F)F)c(N)n3)CC2)C1 [Example 62]
7 | 7 | Nc1nc(N2CCC3(CC2)COC[C@H]3N)cnc1Sc1ccnc(Cl)c1Cl [Example 63]
8 | 13 | Nc1nc(N2CCC3(CC2)COC[C@H]3N)cnc1Sc1ccnc(F)c1Cl [Example 64]
9 | 310 | Nc1nc(N2CCC3(CCC[C@H]3N)CC2)cnc1Sc1cc(F)ncc1Cl [Example 65]
10 | 65 | CC(C)C(=O)O[C@@H]1C[C@@H](N)C2(CCN(c3cnc(Sc4ccnc(Cl)c4Cl)c(N)n3)CC2)C1 [Example 66]
11 | 10 | Nc1nc(N2CCC3(CC2)CC(F)(F)C[C@H]3N)cnc1Sc1ccnc(N)c1Cl [Example 67]
12 | 5 | C[C@H]1C[C@@H](N)C2(CCN(c3cnc(Sc4ccnc(N)c4Cl)c(N)n3)CC2)C1 [Example 70, (1R,3R)-8-(6-amino-5-((2-amino-3-chloropyridin-4-yl)thio)pyrazin-2-yl)-3-methyl-8-azaspiro[4.5]decan-1-amine]
13 | 5 | C[C@@H]1C[C@@H](N)C2(CCN(c3cnc(Sc4ccnc(N)c4Cl)c(N)n3)CC2)C1 [Example 71, (1R,3S)-8-(6-amino-5-((2-amino-3-chloropyridin-4-yl)thio)pyrazin-2-yl)-3-methyl-8-azaspiro[4.5]decan-1-amine]
14 | 193 | NC1=NCC2(CCN(c3cnc(Sc4cccnc4C(F)(F)F)c(N)n3)CC2)O1 [Example 72, 8-(6-amino-5-((2-(trifluoromethyl)pyridin-3-yl)thio)pyrazin-2-yl)-1-oxa-3,8-diazaspiro[4.5]dec-2-en-2-amine]
15 | 20 | NC1=NC2(CCN(c3cnc(Sc4ccnc(Cl)c4Cl)c(N)n3)CC2)CO1 [Example 73]
16 | 56 | NC1=NC2(CCN(c3cnc(Sc4cccnc4C(F)(F)F)c(N)n3)CC2)CO1 [Example 74]
17 | 10 | CN(C)c1nccc(Sc2ncc(N3CCC4(CCC[C@H]4N)CC3)nc2N)c1Cl [Example 75, (R)-8-(6-amino-5-((3-chloro-2-(dimethylamino)pyridin-4-yl)thio)pyrazin-2-yl)-8-azaspiro[4.5]decan-1-amine]
18 | 78 | Nc1nc(N2CCC3(CCC[C@H]3N)CC2)cnc1Sc1ccnnc1Cl [Example 76]
19 | 15 | COc1nccc(Sc2ncc(N3CCC4(CCC[C@H]4N)CC3)nc2N)c1Cl [Example 78]
20 | 42 | Nc1nc(N2CCC3(CCC[C@H]3N)CC2)cnc1Sc1ccncc1C(F)(F)F [Example 80]
21 | 20 | Nc1nc(N2CCC3(CCC[C@H]3N)CC2)cnc1Sc1cc[nH]c(=O)c1Cl [Example 81, (R)-4-((3-amino-5-(1-amino-8-azaspiro[4.5]decan-8-yl)pyrazin-2-yl)thio)-3-chloropyridin-2(1H)-one]
22 | 9.3 | Nc1cc(Sc2ncc(N3CCC4(CCC[C@H]4N)CC3)nc2N)c(Cl)c(Cl)n1 [Example 87]
23 | 4 | C[C@@H]1OCC2(CCN(c3cnc(Sc4cc(N)nc(Cl)c4Cl)c(N)n3)CC2)[C@@H]1N [Example 88]
24 | 11.8 | Nc1cc(Sc2ncc(N3CCC4(CC3)COC[C@H]4N)nc2N)c(Cl)c(Cl)n1 [Example 89]
25 | 4 | Nc1cc(Sc2ncc(N3CCC4(CC3)C[C@H](O)C[C@H]4N)nc2N)c(Cl)c(Cl)n1 [Example 90]
26 | 8 | Nc1nc(N2CCC3(CC2)C[C@@H](F)C[C@H]3N)cnc1Sc1ccnc(N)c1Cl [Example 91]
27 | 10 | Nc1nc(N2CCC3(CC2)C[C@H](F)C[C@H]3N)cnc1Sc1ccnc(N)c1Cl [Example 92]

Same assay, conditions: unit given as M; TFA salt before chiral separation

Row | IC50 [nM] | SMILES
28 | 1 | CC1CCC2(CCN(c3cnc(Sc4cccnc4C(F)(F)F)c(N)n3)CC2)[C@@H]1N (stereo partly drawn) [Example 86a/b, (1R)-8-(6-amino-5-((2-(trifluoromethyl)pyridin-3-yl)thio)pyrazin-2-yl)-2-methyl-8-azaspiro[4.5]decan-1-amine]
